Source: patent US9000208B2, “Glutamate derivatives or salts thereof” (Ajinomoto Co., Inc., priority 2010, dated 2015)
Where a name gives a salt, the structure may show the parent alone. Numbered stars: 1 amine (or outer) side, 2 acyl side, 3 side chain; on linkers, the order of the positions; unused ones are H or OH. Square brackets hold non-standard residues; d marks the D form. Ends that are not written are not given here. γGlu = O=C(O)[C@H](CCC(=O)[*:2])N[*:1]

Tests used:
[1] = Evaluation of kokumi taste, quantitative sensory evaluation test; parameters: species or system human; settings: for Kokumi Intensity Aftertaste / Kokumi Intensity First-middle taste: score control 0, strong 3, very strong 5, n=4
Experimental: On the compounds in which the calcium receptor activating action was found (sodium salts of Compound Nos. 1, 7 and 21), the intensity of kokumi-imparting activity was examined by a quantitative sensory evaluation test. In 5 ml of distilled water was dissolved 525 mg of Compound No. 1 described in REFERENCE EXAMPLE I and of REFERENCE […] EXAMPLE I. By adding 16.4 ml of 0.1M sodium hydroxide solution to the resulting solution, the solution was adjusted to pH 6.5 to 7 followed by freeze-drying. The resulting Na salt was provided for use. In addition, 500 mg of Compound No. 7 described in REFERENCE EXAMPLE I and REFERENCE […] EXAMPLE 7 was suspended in 5 ml of distilled water. To the suspension were sequentially added 1.61 ml of 1M sodium hydroxide and 0.8 ml of 2M hydrochloric acid at 0° C. The solid precipitated was taken out by filtration and dried under reduced pressure at 40° C. to give 426 mg of Reference Compound No. 7. After the solid substance obtained was suspended in 10 ml of distilled water, 1.2 ml of 1M sodium hydroxide was added to the suspension and freeze-dried. The resulting Na salt was provided for use. Reference Compound No. 21 was used in the form of the Na salt, which was prepared from Compound No. 21 described in REFERENCE EXAMPLE I and REFERENCE […] EXAMPLE 21 by the same procedures as described above.
A quantitative sensory evaluation test was conducted as follows. The intensity of kokumi-imparting activity was examined when 0.000001 to 0.1 g/dl of the compound as a sample (No. 1—Na salt) was mixed with distilled water containing sodium glutamate (0.05 g/dl), inosine monophosphate (0.05 g/dl) and sodium chloride (0.5 g/dl). As a reference, γGlu-Cys-Gly and γGlu-Val-Gly were used, each of which is a known kokumi-imparting component. The sample that became acidic to an additive-free control after dissolving the sample was used by adjusting its pH within ±0.2 with NaOH based on the additive-free control. Sensory scoring was defined as a control: 0, strong: 3 and very strong: 5, and performed in n=4. Meanwhile, a “first-middle taste” is intended to mean the taste combining the first taste and middle taste.

rat large intestine loop = assay: Effect of CaSR agonist on water absorption in rat large intestine loop method (PGE2-treated); assay type: in vivo; settings: male SD (IGS) rat, PGE2 i.p., compound in Tyrode solution in the loop, 1 hour
Experimental: Under pentobarbital anesthesia the cecum and large intestine were isolated from the abdomen of a male SD (IGS) rat, and a large intestine loop was prepared by ligating a point 5 cm just below the cecum. Immediately after preparing the loop, PGE2 (4 μg/ml/kg, SIGMA) was intraperitoneally administered. Thirty minutes later, 2 ml of Tyrode solution (136.9 mM NaCl, 2.7 mM KCl, 1.8 mM CaCl2.2H2O, 1.04 mM MgCl2.6H2O, 0.04 mM NaH2PO4.2H2O, 5.55 mM glucose and 11.9 mM NaHCO3) was poured into the loop prepared. An hour later, the weight of the loop, the weight when the liquid was removed from the loop and the loop area were measured to calculate the weight per unit area of the liquid that remains in the loop.
A test compound was dissolved in Tyrode solution (adjusted to pH 6.5 to 7.5), which was provided for tests.
The remaining liquid weight per unit area (g/cm^2) was calculated by the following equation. Remaining liquid weight per unit area (g/cm^2)=(loop weight−loop weight when the liquid was removed from the loop)/loop area
Water absorption was evaluated by calculating the inhibition ratio by the following equation. Inhibition ratio(%)=100−(remaining liquid weight per unit area with a drug−basic average remaining liquid weight per unit area)/(average remaining liquid weight per unit area of vehicle−basic average remaining liquid weight per unit area)×100 […]

[γGlu]-Cys-Gly
Comments on Sensory Evaluation ([1]; 0.01 g/dl): Richness, thickness and continuity | Kokumi Intensity Aftertaste ([1]; 0.01 g/dl): 3.0 | Kokumi Intensity First-middle taste ([1]; 0.01 g/dl): 3.0

N[C@@H](CCC(=O)Nc1cccc(S(=O)(=O)O)c1)C(=O)O [Reference Compound No. 1, N^5-(3-sulfophenyl)-L-glutamine]
Water absorption (rat large intestine loop): promoted dose-dependently

Cc1c(Cl)cc(NC(=O)CC[C@H](N)C(=O)O)cc1S(=O)(=O)O [No. 21-Na salt, N^5-(3-chloro-4-methyl-5-sulfophenyl)-L-glutamine]
Kokumi Intensity Aftertaste ([1]; 0.0002 g/dl): 2.0 | Kokumi Intensity First-middle taste ([1]; 0.0002 g/dl): 1.5 | Kokumi Intensity Aftertaste ([1]; 0.0005 g/dl): 3.1 | Kokumi Intensity First-middle taste ([1]; 0.0005 g/dl): 2.6 | Kokumi Intensity Aftertaste ([1]; 0.001 g/dl): 3.7 | Kokumi Intensity First-middle taste ([1]; 0.001 g/dl): 3.1

N[C@@H](CCC(=O)Nc1cc(Cl)cc(S(=O)(=O)O)c1O)C(=O)O [No. 7-Na salt, N^5-(5-chloro-2-hydroxy-3-sulfophenyl)-L-glutamine]
Comments on Sensory Evaluation ([1]; 0.00005 g/dl): Thickness mainly in the middle taste. | Kokumi Intensity Aftertaste ([1]; 0.00005 g/dl): 2.5 | Kokumi Intensity First-middle taste ([1]; 0.00005 g/dl): 2.2 | Kokumi Intensity Aftertaste ([1]; 0.0001 g/dl): 3.2 | Kokumi Intensity First-middle taste ([1]; 0.0001 g/dl): 2.5 | Comments on Sensory Evaluation ([1]; 0.0005 g/dl): Rich thickness in the middle taste | Kokumi Intensity Aftertaste ([1]; 0.0005 g/dl): 4.0 | Kokumi Intensity First-middle taste ([1]; 0.0005 g/dl): 3.3

[γGlu]-Val-Gly
Comments on Sensory Evaluation ([1]; 0.001 g/dl): Smoothness, richness and growth | Kokumi Intensity Aftertaste ([1]; 0.001 g/dl): 3.0 | Kokumi Intensity First-middle taste ([1]; 0.001 g/dl): 2.5 | Comments on Sensory Evaluation ([1]; 0.005 g/dl): Smoothness, richness and growth | Kokumi Intensity Aftertaste ([1]; 0.005 g/dl): 4.0 | Kokumi Intensity First-middle taste ([1]; 0.005 g/dl): 3.5

N[C@@H](CCC(=O)Nc1cc(Cl)cc(S(=O)(=O)O)c1O)C(=O)O [Reference Compound No. 7, N^5-(5-chloro-2-hydroxy-3-sulfophenyl)-L-glutamine]
Water absorption (rat large intestine loop): promoted in a dose-dependent manner

N[C@@H](CCC(=O)Nc1cccc(S(=O)(=O)O)c1)C(=O)O [No. 1-Na salt, N^5-(3-sulfophenyl)-L-glutamine]
kokumi-imparting activity ([1]; 0.000001 to 0.1 g/dl in water with sodium glutamate 0.05, inosine monophosphate 0.05, sodium chloride 0.5 g/dl): widely found in the above concentrations | Kokumi Intensity Aftertaste ([1]; 0.00001 g/dl): 1.0 | Kokumi Intensity First-middle taste ([1]; 0.00001 g/dl): 0.7 | Comments on Sensory Evaluation ([1]; 0.0001 g/dl): There was harmony accompanied | Kokumi Intensity Aftertaste ([1]; 0.0001 g/dl): 2.0 | Kokumi Intensity First-middle taste ([1]; 0.0001 g/dl): 1.8 | Kokumi Intensity Aftertaste ([1]; 0.0005 g/dl): 3.0 | Kokumi Intensity First-middle taste ([1]; 0.0005 g/dl): 2.6 | Kokumi Intensity Aftertaste ([1]; 0.001 g/dl): 3.6 | Kokumi Intensity First-middle taste ([1]; 0.001 g/dl): 3.2 | Comments on Sensory Evaluation ([1]; 0.01 g/dl): All tastes were strong. | Kokumi Intensity Aftertaste ([1]; 0.01 g/dl): 5.0 | Kokumi Intensity First-middle taste ([1]; 0.01 g/dl): 5.0
